Data published in PubChem BioAssay AID226 (DTP/NCI, 2004).
Several values for one entry are separate records, joined by “and”; a condition that tells them apart may be missing. Equal entries are not always repeated. Inconclusive results and toxic doses are left out.

System: B6C3F1 mice, intracerebral ependymoblastoma, median survival T/C
Test: NCI In Vivo Anticancer Drug Screen. Data for tumor model Ependymoblastoma (intracerebral) in B6C3F1 mice
Details: endpoint: median survival time, higher = longer survival
Method: The antitumor activity of compounds was measured in mice bearing transplantable tumors. Survival or tumor size were measured and the results are expressed as the measurement made in the treated group (T) divided by the measurement made in the vehicle treated control group (C). The tumor model used in this assay is Ependymoblastoma (intracerebral) in B6C3F1 mice

[1] = dose: 12.5 mg/kg/injection, schedule: Q01DX005 (ip), vehicle: saline with Tween-80
[2] = dose: 25.0 mg/kg/injection, schedule: Q01DX005 (ip), vehicle: saline with Tween-80
[3] = dose: 12.5 mg/kg/injection, schedule: Q01DX005 (ip), vehicle: Klucel (hydroxypropylcellulose) (HPC)
[4] = dose: 25.0 mg/kg/injection, schedule: Q01DX005 (ip), vehicle: Klucel (hydroxypropylcellulose) (HPC)
[5] = dose: 50.0 mg/kg/injection, schedule: Q01DX005 (ip), vehicle: Klucel (hydroxypropylcellulose) (HPC)
[6] = dose: 3.12 mg/kg/injection, schedule: Q01DX005 (ip), vehicle: saline with Tween-80
[7] = dose: 6.25 mg/kg/injection, schedule: Q01DX005 (ip), vehicle: saline with Tween-80

In the case of `O=NN(CCF)C(=O)NC1C(O)CCCC1O` (stereo unspecified), the T/C (dose: 5.18 mg/kg/injection, schedule: Q01DX005 (ip), vehicle: Klucel (hydroxypropylcellulose) (HPC)) is reported as 189 % of control, the T/C (dose: 8.64 mg/kg/injection, schedule: Q01DX005 (ip), vehicle: Klucel (hydroxypropylcellulose) (HPC)) is reported as 230 % of control and the T/C (dose: 13.0 mg/kg/injection, schedule: Q01DX001 (ip), vehicle: saline) is reported as 115 % of control. The T/C (dose: 14.4 mg/kg/injection, schedule: Q01DX005 (ip), vehicle: Klucel (hydroxypropylcellulose) (HPC)) was 357 % of control, the T/C (dose: 24.0 mg/kg/injection, schedule: Q01DX005 (ip), vehicle: Klucel (hydroxypropylcellulose) (HPC)) was 111 % of control and the T/C (dose: 36.0 mg/kg/injection, schedule: Q01DX001 (ip), vehicle: saline) was 159 % of control. For the same compound, the T/C (dose: 60.0 mg/kg/injection, schedule: Q01DX001 (ip), vehicle: saline) was 247 % of control and the T/C (dose: 100.0 mg/kg/injection, schedule: Q01DX001 (ip), vehicle: saline) was 157 % of control.

With `CCN(CC)c1ccc2cc3ccc(=[N+](CC)CC)cc-3oc2c1` the T/C (dose: 2.0 mg/kg/injection, schedule: Q01DX005 (ip), vehicle: saline) was 110 % of control, the T/C (dose: 4.0 mg/kg/injection, schedule: Q01DX005 (ip), vehicle: saline) was 90 % of control and the T/C (dose: 8.0 mg/kg/injection, schedule: Q01DX005 (ip), vehicle: saline) was 93 % of control.

With `Nc1nc(=S)c2ncn(C3OC(COC(=O)c4ccccc4)C(OC(=O)c4ccccc4)C3OC(=O)c3ccccc3)c2[nH]1` (stereo unspecified) the T/C [1] was 100 % of control, the T/C [2] was 100 % of control and the T/C (dose: 50.0 mg/kg/injection, schedule: Q01DX005 (ip), vehicle: saline with Tween-80) was 105 % of control.

For `CCCS(=O)CC1NC(=O)NC1=O` (stereo unspecified), the T/C (dose: 9.38 mg/kg/injection, schedule: Q01DX005 (ip), vehicle: Klucel (hydroxypropylcellulose) (HPC)) was 101 % of control, the T/C (dose: 18.75 mg/kg/injection, schedule: Q01DX005 (ip), vehicle: Klucel (hydroxypropylcellulose) (HPC)) was 98 % of control and the T/C (dose: 37.5 mg/kg/injection, schedule: Q01DX005 (ip), vehicle: Klucel (hydroxypropylcellulose) (HPC)) was 109 % of control. For the same compound, the T/C (dose: 75.0 mg/kg/injection, schedule: Q01DX005 (ip), vehicle: Klucel (hydroxypropylcellulose) (HPC)) was 106 % of control and the T/C (dose: 150.0 mg/kg/injection, schedule: Q01DX005 (ip), vehicle: Klucel (hydroxypropylcellulose) (HPC)) was 98 % of control.

In the case of `CC(=O)O[C@H]1C(=O)[C@@]2(C)[C@H]([C@H](OC(=O)c3ccccc3)[C@]3(O)C[C@H](OC(=O)[C@H](O)[C@@H](NC(=O)c4ccccc4)c4ccccc4)C(C)=C1C3(C)C)[C@]1(OC(C)=O)CO[C@@H]1C[C@@H]2O`, the T/C (dose: 2.5 mg/kg/injection, schedule: Q01DX005 (ip), vehicle: Klucel (hydroxypropylcellulose) (HPC)) is reported as 107 % of control, the T/C (dose: 5.0 mg/kg/injection, schedule: Q01DX005 (ip), vehicle: Klucel (hydroxypropylcellulose) (HPC)) is reported as 101 % of control and the T/C (dose: 10.0 mg/kg/injection, schedule: Q01DX005 (ip), vehicle: Klucel (hydroxypropylcellulose) (HPC)) is reported as 91 % of control and 106 % of control. For the same compound, the T/C (dose: 20.0 mg/kg/injection, schedule: Q01DX005 (ip), vehicle: Klucel (hydroxypropylcellulose) (HPC)) was 91 % of control.

With `COC1C(CO)OC(n2cnc3c(=S)nc(N)[nH]c32)C1O` (stereo unspecified) the T/C [3] was 104 % of control, the T/C [4] was 109 % of control and the T/C [5] was 119 % of control. The T/C (dose: 100.0 mg/kg/injection, schedule: Q01DX005 (ip), vehicle: Klucel (hydroxypropylcellulose) (HPC)) was 106 % of control.

With `Cn1cnc([N+](=O)[O-])c1Sc1nc(N)nc2c1ncn2C1OC(CO)C(O)C1O` (stereo unspecified) the T/C (dose: 6.25 mg/kg/injection, schedule: Q01DX005 (ip), vehicle: suspension in saline) was 109 % of control, the T/C (dose: 12.5 mg/kg/injection, schedule: Q01DX005 (ip), vehicle: suspension in saline) was 115 % of control and the T/C (dose: 25.0 mg/kg/injection, schedule: Q01DX005 (ip), vehicle: suspension in saline) was 107 % of control.

In the case of `Nc1nc(SCc2ccccc2F)c2ncn(C3OC(CO)C(O)C3O)c2n1` (stereo unspecified), the T/C (dose: 0.78 mg/kg/injection, schedule: Q01DX005 (ip), vehicle: saline with Tween-80) is reported as 101 % of control and 103 % of control, the T/C (dose: 1.56 mg/kg/injection, schedule: Q01DX005 (ip), vehicle: saline with Tween-80) is reported as 100 % of control and 109 % of control and the T/C [6] is reported as 93 % of control and 96 % of control. For the same compound, the T/C [7] was 91 % of control and 104 % of control and 120 % of control, the T/C [1] was 99 % of control and the T/C [2] was 122 % of control.

In the case of `Cc1cn(C2CC(O)C(CO)O2)c(=O)[nH]c1=O` (stereo unspecified), the T/C (dose: 64.0 mg/kg/injection, schedule: Q01DX005 (ip), vehicle: suspension in saline) is reported as 104 % of control, the T/C (dose: 125.0 mg/kg/injection, schedule: Q01DX003 (ip), vehicle: saline with Tween-80) is reported as 95 % of control and the T/C (dose: 125.0 mg/kg/injection, schedule: Q04DX003 (ip), vehicle: saline with Tween-80) is reported as 111 % of control. The T/C (dose: 128.0 mg/kg/injection, schedule: Q01DX005 (ip), vehicle: suspension in saline) was 94 % of control, the T/C (dose: 250.0 mg/kg/injection, schedule: Q01DX003 (ip), vehicle: saline with Tween-80) was 99 % of control and the T/C (dose: 250.0 mg/kg/injection, schedule: Q04DX003 (ip), vehicle: saline with Tween-80) was 113 % of control. The T/C (dose: 256.0 mg/kg/injection, schedule: Q01DX005 (ip), vehicle: suspension in saline) was 95 % of control, the T/C (dose: 500.0 mg/kg/injection, schedule: Q01DX003 (ip), vehicle: saline with Tween-80) was 95 % of control and the T/C (dose: 500.0 mg/kg/injection, schedule: Q04DX003 (ip), vehicle: saline with Tween-80) was 92 % of control and 120 % of control. For the same compound, the T/C (dose: 512.0 mg/kg/injection, schedule: Q01DX005 (ip), vehicle: suspension in saline) was 92 % of control, the T/C (dose: 800.0 mg/kg/injection, schedule: Q01DX005 (ip), vehicle: saline with Tween-80) was 98 % of control and the T/C (dose: 1000.0 mg/kg/injection, schedule: Q01DX003 (ip), vehicle: saline with Tween-80) was 107 % of control. The T/C (dose: 1000.0 mg/kg/injection, schedule: Q04DX003 (ip), vehicle: saline with Tween-80) was 106 % of control and 112 % of control, the T/C (dose: 1024.0 mg/kg/injection, schedule: Q01DX005 (ip), vehicle: suspension in saline) was 103 % of control and the T/C (dose: 1600.0 mg/kg/injection, schedule: Q01DX005 (ip), vehicle: saline with Tween-80) was 101 % of control. The T/C (dose: 2000.0 mg/kg/injection, schedule: Q01DX003 (ip), vehicle: saline with Tween-80) was 97 % of control, the T/C (dose: 2000.0 mg/kg/injection, schedule: Q04DX003 (ip), vehicle: saline with Tween-80) was 116 % of control and 89 % of control and the T/C (dose: 3000.0 mg/kg/injection, schedule: Q01DX003 (ip), vehicle: saline with Tween-80) was 94 % of control. For the same compound, the T/C (dose: 3000.0 mg/kg/injection, schedule: Q04DX003 (ip), vehicle: saline with Tween-80) was 94 % of control and 104 % of control and the T/C (dose: 3200.0 mg/kg/injection, schedule: Q01DX005 (ip), vehicle: saline with Tween-80) was 91 % of control.

For `NC(=O)c1csc(C2OC(CO)C(O)C2O)n1` (stereo unspecified), the T/C (dose: 9.38 mg/kg/injection, schedule: Q01DX009 (ip), vehicle: saline) was 96 % of control, the T/C (dose: 18.8 mg/kg/injection, schedule: Q01DX009 (ip), vehicle: saline) was 107 % of control and the T/C (dose: 37.5 mg/kg/injection, schedule: Q01DX005 (ip), vehicle: saline) was 93 % of control and 110 % of control. The T/C (dose: 37.5 mg/kg/injection, schedule: Q01DX009 (ip), vehicle: saline) was 99 % of control and 110 % of control, the T/C (dose: 75.0 mg/kg/injection, schedule: Q01DX005 (ip), vehicle: saline) was 101 % of control and 107 % of control and the T/C (dose: 75.0 mg/kg/injection, schedule: Q01DX009 (ip), vehicle: saline) was 112 % of control and 121 % of control. The T/C (dose: 150.0 mg/kg/injection, schedule: Q01DX005 (ip), vehicle: saline) was 113 % of control and 116 % of control, the T/C (dose: 150.0 mg/kg/injection, schedule: Q01DX009 (ip), vehicle: saline) was 110 % of control and 119 % of control and the T/C (dose: 300.0 mg/kg/injection, schedule: Q01DX005 (ip), vehicle: saline) was 108 % of control and 114 % of control. For the same compound, the T/C (dose: 300.0 mg/kg/injection, schedule: Q01DX009 (ip), vehicle: saline) was 114 % of control, the T/C (dose: 600.0 mg/kg/injection, schedule: Q01DX005 (ip), vehicle: saline) was 101 % of control and 114 % of control and the T/C (dose: 600.0 mg/kg/injection, schedule: Q01DX009 (ip), vehicle: saline) was 123 % of control.

In the case of `CN(C)/N=N/c1nc[nH]c1C(N)=O`, the T/C [6] is reported as 120 % of control, the T/C [7] is reported as 114 % of control and the T/C [3] is reported as 115 % of control. The T/C (dose: 16.0 mg/kg/injection, schedule: Q01DX005 (ip), vehicle: saline with Tween-80) was 111 % of control, the T/C [4] was 114 % of control and the T/C [5] was 120 % of control. For the same compound, the T/C (dose: 100.0 mg/kg/injection, schedule: Q01DX005 (ip), vehicle: saline with Tween-80) was 156 % of control and the T/C (dose: 128.0 mg/kg/injection, schedule: Q01DX005 (ip), vehicle: saline with Tween-80) was 155 % of control.
